What was measured:
[1] = system: PAO1 biofilm; experiment: Crystal violet dye based biofilm inhibition assay, maltose derivatives (Example 1); assay type: cell-based, Pseudomonas aeruginosa; settings: for Inhibition of PAO1 biofilm: 110 μM, 24 h, CV assay; for Anti-biofilm activity (inhibition): concentration not given
Procedure: A crystal violet (CV) assay was used to measure the amount of PAO1 biofilm formed after 24 h of bacterial inoculation. The fluorescence of green fluorescent proteins (GFP) expressed by PAO1-GFP was measured to directly quantify bacterial adhesion on polystyrene black 96 well plates with and without maltose derivatives after 2 h of bacterial inoculation. To evaluate the potential of maltose derivatives as both anti-biofilm and anti-adhesion agents, they were compared to a brominated furanone (BF8) known to inhibit biofilm formation, and two generic surfactants, sodium dodecyl sulfate (SDS) and tetra (ethylene glycol) monododecyl ether (C12EG4OH). […] P. aeruginosa strain PAO1-EGFP that constitutively producing green fluorescent protein was allowed to form biofilm on sterile steel coupons.
Inhibitory effect of all the maltose hydrocarbons on P. aeruginosa biofilm formation was determined by crystal violet dye based biofilm inhibition assays. Overnight culture of wild type P. aeruginosa (PAO1) was sub cultured to an OD600 of 0.01 into the 95:5 M9+:Lb medium. 200 μL of the sub culture was aliquoted into the wells of 96 well polystyrene microtiter plate when it reached the OD600 of 0.1. Predetermined concentrations of the test compounds were then added to the respective wells containing sub culture. Sample plates were wrapped in GLAD Press n′ Seal® followed by incubation under stationary conditions for 24 h at 37° C. After incubation the media was discarded and the plates were washed with water and dried for 1 h at 37° C. The sample plates were stained with 200 μL of 0.1% aqueous solution of crystal violet (CV) and followed by incubation at ambient temperature for 20 min. The CV stain was then discarded and the plates were washed with water. The remaining biofilm adhered stain was re-solubilized with 200 μL of 30% acetic acid. After the stain was dissolved (15 minutes), 100 μL of the solubilized CV was transferred from each well into the corresponding wells of a new polystyrene microtiter dish. Biofilm inhibition was quantified by measuring the OD600 of each well in which a negative control lane wherein no biofilm was formed served as a background and was subtracted out. The percent inhibition was calculated by the comparison of the OD600 for biofilm grown in the absence of compound (control) versus biofilm grown in the presence of compound under identical conditions.
Predetermined amounts maltose derivatives stock solution was added to the 200 μL bacterial culture in 96 well plate so that the final concentration of the agent reaches the desired values of 1, 5, 10, 20, 40, 85, 113, 140 μM. Biofilm inhibition and dispersion assay was carried as described previously.

[2] = system: rhl quorum sensing system; experiment: rhl quorum sensing gene reporter assay (prhlI-LVAgfp); assay type: cell-based, Pseudomonas aeruginosa; settings: natural autoinducers present
Text: The ability of the maltoside derivatives to antagonize the two quorum sensing circuits las and/or rhl of P. aeruginosa was investigated by using two reporter strains (PAO1/plasI-LVAgfp, PAO1/prhlI-LVAgfp). These reporter strains produce natural AHL signals, and binding of such signal molecules to the Lux-type receptor proteins ([…]) activates the expression of green fluorescent protein (GFP) encoded by the plasmid.
One of the recent approach for a nonmicrobicidal control of biofilm aims to develop agents that disrupt bacterial cell-to-cell communication by acting as mimics to the natural molecules (autoinducer) that bind […], which are encoded by las and rhl gene. The binding of these mimics with lasR and rhlR proteins either activates or represses the expression of lasI or rhlI.^6 In gene reporter assay, the expression of lasI and rhlI proteins is quantified by measuring expression of green fluorescent protein (GFP) fused to lasI and rhlI genes.^5 Two reporter strains of Pseudomonas aeruginosa (PAO1/plasI_LVAgfp and PAO1/prhlI_LVAgfp) express green fluorescence protein on activation of las or rhl quorum sensing system. The activation or repression of las or rhl quorum sensing system in PA was tested by various DSHs.
Strains PAO1/plasI-LVAgfp and PAO1/prhlI-LVAgfp were grown overnight in LB-media that was supplemented with 300 μg/mL carbenicillin and after 16 hours, the bacteria were sub cultured in LB media (supplemented with 300 μg/mL carbenicillin) to OD600 as 0.01. The OD600 was allowed to reach 0.1 and then 200 μL of culture was aliquoted into the wells of 96-well microtiter plate. DSHs were then added to assigned wells at two different concentrations (85 μM and 160 μM). No agent was added to the well for positive control. The plates then incubated at 37° C. for 24 h in a rotary shaking incubator (250 rpm). The culture from each well was then transferred to corresponding wells of a black walled flat-bottom, 96-well plate (μClear, Greiner-One 655096). The fluorescence and OD absorbance in each well was measured by Synergy 2 multi-mode microplate reader with aGen5 data analysis software. […] Fluorescence was measured at an excitation wavelength of 500 nm and an emission wavelength of 540 nm.
For an antagonist assay, overnight culture of P. aeruginosa PAO1/plasI-LVAgfp (las system) or PAO1/prhlI-LVAgfp (rhl system) in LB broth (supplemented with 300 μg/mL carbenicillin) was grown from a single colony on a LB agar plate supplemented with 300 μg/mL carbenicillin. […] The fluorescence and OD absorbance in each well was measured by Synergy 2 multi-mode microplate reader with Gen5 data analysis software. […] Fluorescence was measured at an excitation wavelength of 500 nm and an emission wavelength of 540 nm. […]

| Compound | Inhibition of PAO1 biofilm [1] | Anti-biofilm activity (inhibition) [1] | Change of GFP fluorescence, rhl reporter strain PAO1/prhlI-LVAgfp (antagonist assay) [2] | Change of GFP fluorescence, rhl reporter strain PAO1/prhlI-LVAgfp (antagonist assay) ([2]; listed as 13: SFαC) | Change of GFP fluorescence, rhl reporter strain PAO1/prhlI-LVAgfp (antagonist assay) ([2]; listed as 12: SFβC) |
| --- | --- | --- | --- | --- | --- |
| CCCCCCCCCCCCOCCOCCOCCOCCO [C12EG4OH, tetra (ethylene glycol) monododecyl ether, reference compound] | did not show any noticeable biofilm inhibition | did not show any anti-biofilm activities |  |  |  |
| CCCCCCCCCCCCOS(=O)(=O)[O-].[Na+] [SDS, sodium dodecyl sulfate, reference compound] | did not show any noticeable biofilm inhibition | did not show any anti-biofilm activities |  |  |  |
| CC(C)CCCC(C)CCCC(C)CCO[C@H]1O[C@H](CO)[C@@H](O[C@@H]2O[C@H](CO)[C@@H](O)[C@H](O)[C@H]2O)[C@H](O)[C@H]1O (stereo partly drawn) [SFαC (13), saturated farnesyl-α-cellobioside] |  |  | neither SFβC (12) nor SFαC (13) caused a significant change in the fluorescence | no significant change in the fluorescence |  |
| CC(C)CCCC(C)CCCC(C)CCO[C@@H]1O[C@H](CO)[C@@H](O[C@@H]2O[C@H](CO)[C@@H](O)[C@H](O)[C@H]2O)[C@H](O)[C@H]1O (stereo partly drawn) [SFβC (12), saturated famesyl-β-cellobioside] |  |  | neither SFβC (12) nor SFαC (13) caused a significant change in the fluorescence |  | no significant change in the fluorescence |

From patent US11357786B2, “Synthetic disugar hydrocarbons as natural analogs to control microbial behaviors” (Syracuse University, priority 2014, dated 2022)
